Molecular target: Replicase polyprotein 1ab (Severe acute respiratory syndrome coronavirus 2) (UniProt P0DTD1)
Description: Functional biochemical assay to identify treatments for viral infectious disease that targets SARS-COV-2 nsp3 macrodomain, whereby the mechanism of action displaces an ADP-Ribose modified peptide from the binding site. Utilizing a time-resolved fluorescence method to measure binding by reading the emitted fluorescence intensity in two wavelengths.

C[C@@H]1[C@H](O)CCCN1C(=O)c1ccc(NC(=O)Nc2ccccc2)cc1
inhibition (Concentration 49.75 uM, Number of replicates 2.0, Standard deviation 0.457 %): -2.96% | inhibition (Concentration 99.5 uM, Number of replicates 2.0, Standard deviation 5.068 %): -2.72%

O=C(c1c[nH]c(=O)cn1)N1CCC(c2ccn3ncc(C(=O)N4CCCCC4)c3c2)CC1
inhibition (Concentration 99.5 uM, Number of replicates 2.0, Standard deviation 1.433 %): 45.8%

Cc1nc(C(=O)N2CCC(c3ccn4ncc(C(=O)N5CCCCC5)c4c3)CC2)c(C)[nH]1
inhibition (Concentration 49.75 uM, Number of replicates 2.0, Standard deviation 0.064 %): 16.8% | inhibition (Concentration 99.5 uM, Number of replicates 2.0, Standard deviation 4.92 %): 27.5%

O=S(=O)(Nc1ncccn1)c1ccc2oc3ccccc3c2c1
inhibition (Concentration 50.0 uM, Number of replicates 2.0, Standard deviation 5.51 %): -3%

O=C(NCc1cc2n(n1)CCCC2)c1cc2cncnc2[nH]1
inhibition (Concentration 50.0 uM, Number of replicates 4.0, Standard deviation 10.451 %): 4.17%

COc1cc(CNc2cnc3[nH]ncc3c2)ccc1Cl
inhibition (Concentration 50.0 uM, Number of replicates 2.0, Standard deviation 4.023 %): -2.79%

c1ccc(CN2CCO[C@@H](CNc3ncnc4nc[nH]c34)C2)cc1
inhibition (Concentration 50.0 uM, Number of replicates 2.0, Standard deviation 1.424 %): -2.44%

O=C(CCN(Cc1cccc(Cl)c1)C(=O)c1ccc(O)cc1)N1CCNCC1
inhibition (Concentration 49.75 uM, Number of replicates 2.0, Standard deviation 5.17 %): -0.343% | inhibition (Concentration 99.5 uM, Number of replicates 2.0, Standard deviation 10.002 %): -1.63%

Nc1c(O)cccc1C(=O)N(CCC(=O)N1CCNCC1)Cc1cccc(Cl)c1
inhibition (Concentration 49.75 uM, Number of replicates 2.0, Standard deviation 0.165 %): -1.24% | inhibition (Concentration 99.5 uM, Number of replicates 2.0, Standard deviation 3.032 %): 1.46%

Cc1cc(C(=O)N2CCC(c3ccn4ncc(C(=O)N5CCCCC5)c4c3)CC2)[nH]n1
inhibition (Concentration 49.75 uM, Number of replicates 2.0, Standard deviation 4.639 %): 16.6% | inhibition (Concentration 99.5 uM, Number of replicates 2.0, Standard deviation 3.947 %): 31.6%

Oc1ccccc1CNc1ncnc2[nH]cnc12
inhibition (Concentration 50.0 uM, Number of replicates 2.0, Standard deviation 0.892 %): 1.9%

Cc1nccc(C(=O)N2CCC(c3ccn4ncc(C(=O)N5CCCCC5)c4c3)CC2)n1
inhibition (Concentration 49.75 uM, Number of replicates 2.0, Standard deviation 2.531 %): 16.5% | inhibition (Concentration 99.5 uM, Number of replicates 2.0, Standard deviation 1.199 %): 27.4%

O=C(NCC1(O)CCOCC1)c1cnn2ccc(C3CCN(C(=O)c4ccccc4)CC3)cc12
inhibition (Concentration 49.75 uM, Number of replicates 2.0, Standard deviation 3.347 %): -3.96% | inhibition (Concentration 99.5 uM, Number of replicates 2.0, Standard deviation 3.334 %): -1.1%

O=C(NCc1nc2cccnc2[nH]1)c1cnc2nc[nH]c(=O)c2c1
inhibition (Concentration 50.0 uM, Number of replicates 2.0, Standard deviation 1.79 %): -1.99% | inhibition (Concentration 100.0 uM, Number of replicates 2.0, Standard deviation 3.352 %): 7.03%

Oc1cc(CNc2ncnc3[nH]cnc23)ccn1
inhibition (Concentration 50.0 uM, Number of replicates 2.0, Standard deviation 4.588 %): -0.821% | inhibition (Concentration 100.0 uM, Number of replicates 2.0, Standard deviation 5.781 %): -3.73%

Cc1ccc2ccccc2c1-c1ncnc2[nH]ccc12
inhibition (Concentration 49.75 uM, Number of replicates 2.0, Standard deviation 3.409 %): -5.32% | inhibition (Concentration 99.5 uM, Number of replicates 2.0, Standard deviation 3.055 %): -9.1%

Brc1ccc(-n2nnnc2Sc2ncnc3[nH]ccc23)cc1
inhibition (Concentration 50.0 uM, Number of replicates 2.0, Standard deviation 10.96 %): 12.7%

c1ccc2sc(CCNc3ncnc4nc[nH]c34)nc2c1
inhibition (Concentration 50.0 uM, Number of replicates 2.0, Standard deviation 2.493 %): -4.21%

Cn1cc(Br)c(CNC(=O)c2ccc(NC(=O)Nc3ccccc3)cc2)n1
inhibition (Concentration 49.75 uM, Number of replicates 2.0, Standard deviation 4.908 %): 4.31% | inhibition (Concentration 99.5 uM, Number of replicates 2.0, Standard deviation 1.253 %): 1.2%

CN(C)[C@@H]1CCCN(C(=O)c2cnc3c(c2)c(=O)[nH]c(=O)n3C)CC1
inhibition (Concentration 50.0 uM, Number of replicates 2.0, Standard deviation 1.745 %): -8.97%

O=C(NC[C@@H]1CCCCN1)c1cnn2ccc(C3CCN(C(=O)c4ccccc4)CC3)cc12
inhibition (Concentration 49.75 uM, Number of replicates 2.0, Standard deviation 3.98 %): -5.92% | inhibition (Concentration 99.5 uM, Number of replicates 2.0, Standard deviation 0.917 %): -2.57%

Cn1cnc(C(=O)N(CCC(=O)N2CCNCC2)Cc2cccc(Cl)c2)n1
inhibition (Concentration 49.75 uM, Number of replicates 2.0, Standard deviation 2.331 %): -1.44% | inhibition (Concentration 99.5 uM, Number of replicates 2.0, Standard deviation 4.384 %): -0.25%

FC(F)(F)c1nnc2n1CCN(c1ncnc3[nH]ccc13)C2
inhibition (Concentration 49.75 uM, Number of replicates 2.0, Standard deviation 1.459 %): -1.97% | inhibition (Concentration 99.5 uM, Number of replicates 2.0, Standard deviation 0.538 %): -1%

O=C(CCN(Cc1cccc(Cl)c1)C(=O)c1ncccc1Cl)N1CCNCC1
inhibition (Concentration 49.75 uM, Number of replicates 2.0, Standard deviation 1.117 %): 2.75% | inhibition (Concentration 99.5 uM, Number of replicates 2.0, Standard deviation 8.572 %): 7.52%

c1ccc([C@@H](CNc2ncnc3n[nH]cc23)N2CCOCC2)cc1
inhibition (Concentration 50.0 uM, Number of replicates 2.0, Standard deviation 1.427 %): -0.781%

O=C(N[C@@H](C(=O)O)[C@@H](O)Cc1ccccc1)c1ncnc2[nH]ccc12
inhibition (Concentration 49.75 uM, Number of replicates 2.0, Standard deviation 1.324 %): 3.79% | inhibition (Concentration 99.5 uM, Number of replicates 2.0, Standard deviation 4.676 %): 12.3%

CO[C@@H](CNc1ncnc2[nH]ccc12)c1cccc(Cl)c1
inhibition (Concentration 50.0 uM, Number of replicates 2.0, Standard deviation 2.381 %): 4.1% | inhibition (Concentration 100.0 uM, Number of replicates 2.0, Standard deviation 2.011 %): 14.2%

OC[C@@]1(Cc2ccc(F)cc2)CCN(c2ncnc3[nH]ccc23)C1
inhibition (Concentration 50.0 uM, Number of replicates 2.0, Standard deviation 2.787 %): 5.07%

CC(C)OCCNC(=O)c1cc2c(=O)n3ccccc3nc2n1C
inhibition (Concentration 50.0 uM, Number of replicates 2.0, Standard deviation 4.259 %): 14%

Cc1[nH]cnc1C(=O)N1CCC(c2ccn3ncc(C(=O)N4CCCCC4)c3c2)CC1
inhibition (Concentration 49.75 uM, Number of replicates 2.0, Standard deviation 1.318 %): 16.4% | inhibition (Concentration 99.5 uM, Number of replicates 2.0, Standard deviation 4.675 %): 32%

C[C@@H]1CN(C(=O)c2ccc(NC(=O)Nc3ccccc3)cc2)CC(=O)N1
inhibition (Concentration 49.75 uM, Number of replicates 2.0, Standard deviation 1.912 %): -0.707% | inhibition (Concentration 99.5 uM, Number of replicates 2.0, Standard deviation 5.834 %): 0.29%

Cc1nc(NC(=O)Cn2cnc3ccccc3c2=O)c2cc[nH]c2n1
inhibition (Concentration 49.75 uM, Number of replicates 2.0, Standard deviation 4.18 %): -4.07% | inhibition (Concentration 99.5 uM, Number of replicates 2.0, Standard deviation 1.131 %): -4.89%

Cc1nc(NC(=O)c2nccc3ccncc23)c2cc[nH]c2n1
inhibition (Concentration 50.0 uM, Number of replicates 2.0, Standard deviation 2.951 %): -5.83% | inhibition (Concentration 100.0 uM, Number of replicates 2.0, Standard deviation 4.025 %): 2.61%

c1ccc(OC[C@@H]2CCCN2c2ncnc3[nH]ccc23)cc1
inhibition (Concentration 50.0 uM, Number of replicates 2.0, Standard deviation 1.709 %): -0.466%

O=C1C[C@@]2(CCCN(c3ncnc4[nH]ccc34)C2)CN1
inhibition (Concentration 50.0 uM, Number of replicates 2.0, Standard deviation 0.483 %): -2.45%

O=C(c1ccnnc1O)N1CCC(c2ccn3ncc(C(=O)N4CCCCC4)c3c2)CC1
inhibition (Concentration 49.75 uM, Number of replicates 2.0, Standard deviation 0.647 %): -7.59% | inhibition (Concentration 99.5 uM, Number of replicates 2.0, Standard deviation 0.871 %): 10.2%

Cc1nn(C)c(NCc2nc(CO)cs2)c1C#N
inhibition (Concentration 50.0 uM, Number of replicates 2.0, Standard deviation 1.694 %): 2.1%

CC(C)[C@@H](Nc1ncnc2[nH]ccc12)C(F)F
inhibition (Concentration 49.75 uM, Number of replicates 2.0, Standard deviation 1.25 %): 81.6% | inhibition (Concentration 99.5 uM, Number of replicates 2.0, Standard deviation 1.983 %): 91.7%

CCN1CCN(C(=O)c2cnn3ccc(C4CCN(C(=O)c5ccccc5)CC4)cc23)CC1=O
inhibition (Concentration 49.75 uM, Number of replicates 2.0, Standard deviation 2.605 %): -8.63% | inhibition (Concentration 99.5 uM, Number of replicates 2.0, Standard deviation 4.496 %): -3.46%

Cc1ncc(NCc2ncn(C)c2Cl)cc1C(N)=O
inhibition (Concentration 50.0 uM, Number of replicates 2.0, Standard deviation 1.923 %): 2.41%

Cc1cnc(C(=O)N(CCC(=O)N2CCNCC2)Cc2cccc(Cl)c2)nc1
inhibition (Concentration 49.75 uM, Number of replicates 2.0, Standard deviation 2.063 %): -1.49% | inhibition (Concentration 99.5 uM, Number of replicates 2.0, Standard deviation 9.956 %): 6.47%

CCO[C@@H]1C[C@@H](Nc2ncnc3[nH]ccc23)C12CCOCC2
inhibition (Concentration 50.0 uM, Number of replicates 2.0, Standard deviation 3.029 %): 2.32%

CC(C)[C@@H](CCN(C)C(=O)c1nn2cccnc2c1Cl)Nc1ncnc2[nH]ccc12
inhibition (Concentration 49.75 uM, Number of replicates 2.0, Standard deviation 6.794 %): 0.844% | inhibition (Concentration 99.5 uM, Number of replicates 2.0, Standard deviation 0.494 %): 1.65%

Cn1nc(C(=O)N2CCC(c3ccn4ncc(C(=O)N5CCCCC5)c4c3)CC2)cc1C(=O)O
inhibition (Concentration 49.75 uM, Number of replicates 2.0, Standard deviation 1.938 %): 42.7% | inhibition (Concentration 99.5 uM, Number of replicates 2.0, Standard deviation 2.395 %): 59.7%

O=C(c1nc(=O)[nH][nH]1)N1CCC(c2ccn3ncc(C(=O)N4CCCCC4)c3c2)CC1
inhibition (Concentration 49.75 uM, Number of replicates 2.0, Standard deviation 0.837 %): 23.4% | inhibition (Concentration 99.5 uM, Number of replicates 2.0, Standard deviation 3.14 %): 34.6%

Cc1ncc(NCc2cnc3c(c2)NC(=O)CO3)cc1Cl
inhibition (Concentration 50.0 uM, Number of replicates 2.0, Standard deviation 2.461 %): -0.368%

Cc1cc(NCc2csc(C)n2)ncn1
inhibition (Concentration 50.0 uM, Number of replicates 2.0, Standard deviation 0.576 %): -4.64%

COc1cc(Nc2ncnc3[nH]ccc23)ccc1NC(C)=O
inhibition (Concentration 50.0 uM, Number of replicates 2.0, Standard deviation 12.002 %): -7.76%

O=C(Cc1ccns1)Nc1ncnc2[nH]cnc12
inhibition (Concentration 49.75 uM, Number of replicates 2.0, Standard deviation 7.374 %): -9.5% | inhibition (Concentration 99.5 uM, Number of replicates 2.0, Standard deviation 4.303 %): -3.24%

COC(=O)c1cc2c(Oc3ccccc3C#N)ncnc2[nH]1
inhibition (Concentration 50.0 uM, Number of replicates 2.0, Standard deviation 0.741 %): 2.92%

O=C(Nc1ccccc1)Nc1ccc(C(=O)N2CCc3nc[nH]c3C2)cc1
inhibition (Concentration 49.75 uM, Number of replicates 2.0, Standard deviation 2.91 %): -3.02% | inhibition (Concentration 99.5 uM, Number of replicates 2.0, Standard deviation 5.124 %): -2.38%

Source: ChEMBL document CHEMBL5442379, “ASAP - SARS-CoV-2 nsp3 macrodomain single point” (2024)
